pKi: −log10 of the molar value.
Biological target: T1, Dimer of Gag-Pol polyprotein [501-599,Q508K,L534I,L564I,C568A,C596A] (Human immunodeficiency virus 1, UniProt P03367, C568A/C596A/L534I/L564I/Q508K)
T1 construct: 501-599
Test: Protease Inhibition Assay
Settings: pH 6.4; 25 °C
Protocol: The Ki values were determined by substrate cleavage assay using fluorogenic substrate, 2-(aminobenzoyl)-Thr-Ile-Nle-Phe(p-NO2)-Gln-Arg-NH2. A standard curve relating changes in fluorescent intensity to changes in concentration of product was used to convert fluorescent changes into molar velocities. The amount of cleavage was determined by HPLC.

| Structure (SMILES) | pKi |
| --- | --- |
| CC(C)CN(C[C@@H](O)[C@H](Cc1ccccc1)NC(=O)O[C@H]1C[C@H]2CCC[C@H]2C1)S(=O)(=O)c1ccc(CO)cc1 [(2R,3aR,6aS)-octahydropentalen-2-yl N-[(2S,3R)-3-hydroxy-4-{[4-(hydroxymethyl)benzene](2-methylpropyl)sulfonamido}-1-phenylbutan-2-yl]carbamate] | 8.28 |
| CC(C)CN(C[C@@H](O)[C@H](Cc1ccccc1)NC(=O)O[C@@H]1C[C@@H]2CCO[C@@H]2C1)S(=O)(=O)c1ccc(N)cc1 [(3aS,5R,6aR)-hexahydro-2H-cyclopenta[b]furan-5-yl N-[(2S,3R)-4-[(4-aminobenzene)(2-methylpropyl)sulfonamido]-3-hydroxy-1-phenylbutan-2-yl]carbamate] | 9.85 |
